Results from ChEMBL document CHEMBL1155399, “Novel glitazones: design, synthesis, glucose uptake and structure-activity relationships” (Bioorg Med Chem Lett, 2010).

Experiments:
[1] = Antidiabetic activity in Wistar rat hemidiaphragm assessed as glucose uptake at 2 mg after 45 mins by GOD/POD enzymatic method in absence of insulin; details: Diaphragm
[2] = Antidiabetic activity in Wistar rat hemidiaphragm assessed as glucose uptake at 2 mg after 45 mins by GOD/POD enzymatic method in presence of insulin; details: Diaphragm

Row | SMILES | Activity [1] [mg/g] | Activity [2] [mg/g]
1 | COc1cc(/C=C2/SC(=O)NC2=O)ccc1OCC(=O)Nc1ccccc1 | 12 | 28.5
2 | COc1cc(/C=C2/SC(=O)NC2=O)ccc1OCC(=O)NC1CCCCC1 | 9.5 | 27.2
3 | COc1cc(/C=C2/SC(=S)NC2=O)ccc1OCC(=O)NCc1ccccc1 | 10.2 | 26.8
4 | COc1ccc(NC(=O)COc2ccc(CC3SC(=S)NC3=O)cc2OC)cc1 (configuration not stated) | 9.5 | 28.2
5 | COc1cc(/C=C2/SC(=O)NC2=O)ccc1OCC(=O)Nc1ccccn1 | 12.2 | 32
6 | COc1cc(/C=C2/SC(=S)NC2=O)ccc1OCC(=O)NC1CCCCC1 | 11.8 | 30
7 | COc1ccc(NC(=O)COc2ccc(CC3SC(=O)NC3=O)cc2OC)cc1 (configuration not stated) | 11.2 | 30.2
8 | COc1ccc(NC(=O)COc2ccc(/C=C3/SC(=O)NC3=O)cc2OC)cc1 | 10.8 | 36.2
9 | CN(CCOc1ccc(CC2SC(=O)NC2=O)cc1)c1ccccn1 (configuration not stated) | 11.2 | 35.2
10 | COc1cc(/C=C2/SC(=S)NC2=O)ccc1OCC(=O)Nc1ccccc1 | 8 | 24.8
11 | COc1cc(/C=C2/SC(=O)NC2=O)ccc1OCC(=O)NCc1ccccc1 | 10.5 | 31.8
12 | COc1ccc(NC(=O)COc2ccc(/C=C3/SC(=S)NC3=O)cc2OC)cc1 | 9.75 | 33.5
13 | COc1cc(/C=C2/SC(=O)NC2=O)ccc1OCC(=O)Nc1ccccc1C(N)=O | 10 | 29
14 | COc1cc(/C=C2/SC(=O)NC2=O)ccc1OCC(=O)Nc1ccccc1[N+](=O)[O-] | 9.75 | 26.2
15 | COc1cc(/C=C2/SC(=S)NC2=O)ccc1OCC(=O)Nc1ccccn1 | 9.75 | 30
16 | COc1cc(/C=C2/SC(=S)NC2=O)ccc1OCC(=O)Nc1ccccc1[N+](=O)[O-] | 9 | 25.5
